According to patent publication US8013156B2 (Exelixis, Inc., priority 2003, dated 2011):

target: Tie-2 (Homo sapiens, UniProt Q02763); experiment: Tie-2 tyrosine kinase activity assay (luciferase/luciferin ATP consumption with pEY substrate, or 33P-ATP incorporation); format: biochemical; settings: human enzyme Tie-2
Outline: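 Values are IC50 categories (A <50 nM to D ≥10,000 nM), with Ki obtainable by fitting rates to a tight-binding model. Assay formats: 33P-ATP phosphate transfer to adsorbed generic substrate counted by scintillation, or luciferase-detected ATP depletion using pEY.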

Chain of Tie-2 (Q02763 23-1124): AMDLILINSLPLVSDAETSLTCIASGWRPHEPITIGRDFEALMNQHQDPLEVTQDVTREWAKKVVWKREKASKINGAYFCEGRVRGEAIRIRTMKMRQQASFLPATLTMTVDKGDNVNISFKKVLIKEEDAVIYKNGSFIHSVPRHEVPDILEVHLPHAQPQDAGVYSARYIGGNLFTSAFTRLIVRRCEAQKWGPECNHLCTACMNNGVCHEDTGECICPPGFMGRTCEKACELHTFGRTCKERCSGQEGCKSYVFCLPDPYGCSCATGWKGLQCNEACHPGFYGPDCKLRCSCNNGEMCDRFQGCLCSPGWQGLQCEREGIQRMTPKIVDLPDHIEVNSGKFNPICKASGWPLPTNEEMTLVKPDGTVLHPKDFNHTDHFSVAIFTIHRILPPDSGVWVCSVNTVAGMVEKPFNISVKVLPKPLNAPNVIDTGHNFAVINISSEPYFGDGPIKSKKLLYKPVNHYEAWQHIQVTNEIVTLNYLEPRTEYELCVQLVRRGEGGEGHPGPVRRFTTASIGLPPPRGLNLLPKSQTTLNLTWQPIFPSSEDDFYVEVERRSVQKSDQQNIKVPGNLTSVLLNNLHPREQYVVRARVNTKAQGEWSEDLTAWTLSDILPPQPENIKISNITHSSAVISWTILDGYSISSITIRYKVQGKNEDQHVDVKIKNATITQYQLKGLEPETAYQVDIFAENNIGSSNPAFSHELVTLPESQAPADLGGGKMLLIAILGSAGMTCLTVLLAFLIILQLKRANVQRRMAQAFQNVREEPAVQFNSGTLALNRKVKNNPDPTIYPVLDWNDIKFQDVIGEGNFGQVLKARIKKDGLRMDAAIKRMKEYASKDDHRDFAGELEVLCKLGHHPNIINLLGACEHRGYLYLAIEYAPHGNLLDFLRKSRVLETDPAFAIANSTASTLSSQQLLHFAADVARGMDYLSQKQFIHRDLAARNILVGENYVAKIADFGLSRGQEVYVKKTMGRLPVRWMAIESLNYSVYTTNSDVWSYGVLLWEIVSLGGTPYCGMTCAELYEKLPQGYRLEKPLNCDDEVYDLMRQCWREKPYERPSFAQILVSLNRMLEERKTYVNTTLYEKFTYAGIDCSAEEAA

Row | Compound | IC50
1 | CC(C)Nc1nccc(COc2nsnc2N2CCN(C(=O)Nc3cc(C(F)(F)F)cc(C(F)(F)F)c3)CC2)n1 [Example 116, N-[3,5-bis(trifluoromethyl)phenyl]-4-{4-[({2-[(1-methylethyl)amino]pyrimidin-4-yl}methyl)oxy]-1,2,5-thiadiazol-3-yl}piperazine-1-carboxamide] | 50 to 1000 nM
2 | Nc1cc(COc2nsnc2N2CCN(S(=O)(=O)c3cc(C(F)(F)F)cc(C(F)(F)F)c3)CC2)ccn1 [Example 148, 4-({[4-(4-{[3,5-bis(trifluoromethyl)phenyl]sulfonyl}piperazin-1-yl)-1,2,5-thiadiazol-3-yl]oxy}methyl)pyridin-2-amine] | ≥ 10000 nM
3 | CCN1CCC(C(=O)Nc2cc(COc3nsnc3N3CCN(C(=O)Nc4cc(C(F)(F)F)cc(C(F)(F)F)c4)CC3)ccn2)CC1 [Example 146, N-[3,5-bis(trifluoromethyl)phenyl]-4-(4-{[(2-{[(1-ethylpiperidin-4-yl)carbonyl]amino}pyridin-4-yl)methyl]oxy}-1,2,5-thiadiazol-3-yl)piperazine-1-carboxamide] | < 50 nM
4 | CCc1cccc(NC(=O)N2CCN(c3nsnc3OCc3ccnc(NC(=O)OC)c3)CC2)c1 [Example 133, methyl [4-({[4-(4-{[(3-ethylphenyl)amino]carbonyl}piperazin-1-yl)-1,2,5-thiadiazol-3-yl]oxy}methyl)pyridin-2-yl]carbamate] | < 50 nM
5 | C[C@H]1CN(c2nsnc2OCc2ccncc2)CCN1C(=O)Nc1cccc(C(F)(F)F)c1 [Example 58, (2S)-2-methyl-4-{4-[(pyridin-4-ylmethyl)oxy]-1,2,5-thiadiazol-3-yl}-N-[3-(trifluoromethyl)phenyl]piperazine-1-carboxamide] | 50 to 1000 nM
6 | O=C(Nc1cc(C(F)(F)F)cc(C(F)(F)F)c1)N1CCN(c2nsnc2NCc2ccncc2)CC1 [Example 44, N-[3,5-bis(trifluoromethyl)phenyl]-4-{4-[(pyridin-4-ylmethyl)amino]-1,2,5-thiadiazol-3-yl}piperazine-1-carboxamide] | 1000 to 10000 nM
7 | Cc1cc(C)cc(NC(=O)N2CCN(c3nsnc3OCc3ccncc3)CC2)c1 [Example 8] | 50 to 1000 nM
8 | O=C(Nc1cc(C(F)(F)F)cc(C(F)(F)F)c1)N1CCN(c2nsnc2OCc2ccnc(NC3CC3)n2)CC1 [Example 123, N-[3,5-bis(trifluoromethyl)phenyl]-4-[4-({[2-(cyclopropylamino)pyrimidin-4-yl]methyl}oxy)-1,2,5-thiadiazol-3-yl]piperazine-1-carboxamide] | < 50 nM
9 | Nc1nccc(COc2cccnc2N2CCN(C(=O)Nc3cccc(F)c3)CC2)n1 [Example 186, 4-(3-{[(2-aminopyrimidin-4-yl)methyl]oxy}pyridin-2-yl)-N-(3-fluorophenyl)piperazine-1-carboxamide] | 50 to 1000 nM
10 | CC(C)c1cccc(NC(=O)N2CCN(c3ncccc3OCc3ccnc(N)n3)CC2)c1 [Example 167, 4-(3-{[(2-aminopyrimidin-4-yl)methyl]oxy}pyridin-2-yl)-N-[3-(1-methylethyl)phenyl]piperazine-1-carboxamide] | < 50 nM
11 | CNc1nccc(COc2nsnc2N2CCN(C(=O)Nc3cc(C(F)(F)F)cc(C(F)(F)F)c3)CC2)n1 [Example 108, N-[3,5-bis(trifluoromethyl)phenyl]-4-[4-({[2-(methylamino)pyrimidin-4-yl]methyl}oxy)-1,2,5-thiadiazol-3-yl]piperazine-1-carboxamide] | < 50 nM
12 | O=C(Nc1cc(C(F)(F)F)cc(C(F)(F)F)c1)N1CCN(c2ncccc2OCc2ccncc2)CC1 [Example 97, N-[3,5-bis(trifluoromethyl)phenyl]-4-{3-[(pyridin-4-ylmethyl)oxy]pyridin-2-yl}piperazine-1-carboxamide] | < 50 nM
13 | CC(C)c1ccc(NC(=O)N2CCN(c3nsnc3OCc3ccncc3)CC2C)cc1 (stereo not drawn) [Example 50, 2-methyl-N-[4-(1-methylethyl)phenyl]-4-{4-[(pyridin-4-ylmethyl)oxy]-1,2,5-thiadiazol-3-yl}piperazine-1-carboxamide] | 1000 to 10000 nM
14 | CCc1cccc(NC(=O)N2CCN(c3nsnc3OCc3ccnc(NC(=O)CN4CCN(C)CC4)c3)CC2)c1 [Example 172, N-(3-ethylphenyl)-4-(4-{[(2-{[(4-methylpiperazin-1-yl)acetyl]amino}pyridin-4-yl)methyl]oxy}-1,2,5-thiadiazol-3-yl)piperazine-1-carboxamide] | < 50 nM
15 | O=C(Cc1cc(C(F)(F)F)ccc1C(F)(F)F)NC1CCN(c2nsnc2OCc2ccncc2)C1 (stereo not drawn) [Example 60, 2-[2,5-bis(trifluoromethyl)phenyl]-N-(1-{4-[(pyridin-4-ylmethyl)oxy]-1,2,5-thiadiazol-3-yl}pyrrolidin-3-yl)acetamide] | 50 to 1000 nM
16 | Nc1nccc(COc2nccnc2N2CCN(C(=O)Nc3cc(C(F)(F)F)cc(C(F)(F)F)c3)CC2)n1 [Example 135, 4-(3-{[(2-aminopyrimidin-4-yl)methyl]oxy}pyrazin-2-yl)-N-[3,5-bis(trifluoromethyl)phenyl]piperazine-1-carboxamide] | < 50 nM

More lines, now with the values ahead:

Row | IC50 | Compound
17 | < 50 nM | Nc1nccc(COc2nccnc2N2CCN(C(=O)Nc3cc(C(F)(F)F)ccc3F)CC2)n1 [Example 225, 4-(3-{[(2-aminopyrimidin-4-yl)methyl]oxy}pyrazin-2-yl)-N-[2-fluoro-5-(trifluoromethyl)phenyl]piperazine-1-carboxamide]
18 | < 50 nM | CCc1cc(Cl)cc(NC(=O)N2CCN(c3ccccc3OCc3ccnc(N)n3)CC2)c1 [Example 281, 4-(2-{[(2-aminopyrimidin-4-yl)methyl]oxy}phenyl)-N-(3-chloro-5-ethylphenyl)piperazine-1-carboxamide]
19 | 50 to 1000 nM | Nc1nccc(COc2cccnc2N2CCN(C(=O)Nc3cc(Cl)ccc3F)CC2)n1 [Example 193, 4-(3-{[(2-aminopyrimidin-4-yl)methyl]oxy}pyridin-2-yl)-N-(5-chloro-2-fluorophenyl)piperazine-1-carboxamide]
20 | 1000 to 10000 nM | Nc1nccc(COc2cccnc2N2CCN(C(=O)Nc3ccccc3F)CC2)n1 [Example 188, 4-(3-{[(2-aminopyrimidin-4-yl)methyl]oxy}pyridin-2-yl)-N-(2-fluorophenyl)piperazine-1-carboxamide]
21 | < 50 nM | Nc1nccc(COc2ccccc2N2CCN(C(=O)Nc3cc(C(F)(F)F)ccc3F)CC2)n1 [Example 268, 4-(2-{[(2-aminopyrimidin-4-yl)methyl]oxy}phenyl)-N-[2-fluoro-5-(trifluoromethyl)phenyl]piperazine-1-carboxamide]
22 | 50 to 1000 nM | CN1CCN(CC(=O)Nc2cc(COc3cccnc3N3CCN(C(=O)Nc4cc(C(F)(F)F)ccc4F)CC3)ccn2)CC1 [Example 211, N-[2-fluoro-5-(trifluoromethyl)phenyl]-4-(3-{[(2-{[(4-methylpiperazin-1-yl)acetyl]amino}pyridin-4-yl)methyl]oxy}pyridin-2-yl)piperazine-1-carboxamide]
23 | < 50 nM | CCc1cc(Br)cc(NC(=O)N2CCN(c3nsnc3OCc3ccnc(N)n3)CC2)c1 [Example 238, 4-(4-{[(2-aminopyrimidin-4-yl)methyl]oxy}-1,2,5-thiadiazol-3-yl)-N-(3-bromo-5-ethylphenyl)piperazine-1-carboxamide]
24 | < 50 nM | CCc1ccc(F)c(NC(=O)N2CCN(c3ncccc3OCc3ccnc(NC(=O)CN4CCN(C)CC4)c3)CC2)c1 [Example 199, N-(5-ethyl-2-fluorophenyl)-4-(3-{[(2-{[(4-methylpiperazin-1-yl)acetyl]amino}pyridin-4-yl)methyl]oxy}pyridin-2-yl)piperazine-1-carboxamide]
